Source: ChEMBL document CHEMBL3045918, “Synthesis, crystal structure, and insecticidal activities of highly congested hexahydroimidazo[1,2-a]pyridine derivatives: effect of conformation on activities” (2010)

Key:
Format in all cases: functional
Aphis craccivora [1] = assay: Insecticidal activity against Aphis craccivora (cowpea aphid) in compound treated horsebean plant leaves assessed as mortality at 500 mg/L measured after 24 hr by leaf-dip method
Mythimna separata [2] = assay: Insecticidal activity against second-instar larvae Mythimna separata (Oriental armyworm) in compound treated corn leaves assessed as mortality at 500 mg/L measured after 48 hr
Aphis craccivora [3] = assay: Insecticidal activity against Aphis craccivora (cowpea aphid) in compound treated horsebean plant leaves assessed as mortality measured after 24 hr by leaf-dip method
Mythimna separata [4] = assay: Insecticidal activity against second-instar larvae Mythimna separata (Oriental armyworm) in compound treated corn leaves assessed as mortality measured after 48 hr
Nilaparvata lugens [5] = assay: Insecticidal activity against compound sensitive second-instar larvae Nilaparvata lugens (brown planthopper) in compound rice seedlings assessed as toxicity at 25 degC measured after 6 days relative to control
Nilaparvata lugens [6] = assay: Insecticidal activity against compound sensitive second-instar larvae Nilaparvata lugens (brown planthopper) in compound rice seedlings assessed as mortality at 25 degC measured after 6 days; conditions: 144 h
Nilaparvata lugens [7] = assay: Insecticidal activity against compound resistant second-instar larvae Nilaparvata lugens (brown planthopper) in compound rice seedlings assessed as mortality at 25 degC measured after 6 days; conditions: 144 h
Nilaparvata lugens [8] = assay: Insecticidal activity against compound resistant second-instar larvae Nilaparvata lugens (brown planthopper) in compound rice seedlings assessed as toxicity at 25 degC measured after 6 days relative to control

SMILES	mortality at 500 µg/mL (Aphis craccivora [1])	mortality at 500 µg/mL (Mythimna separata [2])	LC50 (Aphis craccivora [3])	LC50 (Mythimna separata [4])	Ratio (Nilaparvata lugens [5])	LC50 (Nilaparvata lugens [6])	LC50 (Nilaparvata lugens [7])	Ratio (Nilaparvata lugens [8])
Cc1ccc([C@H]2C([N+](=O)[O-])=C3N(Cc4ccc(Cl)nc4)CCN3[C@H](c3ccc(C)s3)[C@@]2(C2=NCCN2Cc2ccc(Cl)nc2)[N+](=O)[O-])s1	100%	0%						
O=[N+]([O-])C1=C2N(Cc3ccc(Cl)nc3)CCN2[C@H](c2cccs2)[C@@](C2=NCCN2Cc2ccc(Cl)nc2)([N+](=O)[O-])[C@H]1c1cccs1	85.6%	0%						
O=[N+]([O-])C1=C2N(Cc3ccc(Cl)nc3)CCN2[C@H](c2ccco2)[C@@](C2=NCCN2Cc2ccc(Cl)nc2)([N+](=O)[O-])[C@H]1c1ccco1	87%	0%						
Cc1ccc([C@@H]2C([N+](=O)[O-])=C3N(Cc4ccc(Cl)nc4)CCN3[C@H](c3ccc(C)s3)[C@@]2(C2=NCCN2Cc2ccc(Cl)nc2)[N+](=O)[O-])s1	100%	100%	3.79 µM	27.9 µM				
Cc1ccc([C@@H]2C([N+](=O)[O-])=C3N(Cc4ccc(Cl)nc4)CCN3[C@H](c3ccc(C)o3)[C@@]2(C2=NCCN2Cc2ccc(Cl)nc2)[N+](=O)[O-])o1	100%	100%	1.31 µM	43 µM				
O=[N+]([O-])C1=C2N(Cc3ccc(Cl)nc3)CCN2[C@H](c2cccs2)[C@@](C2=NCCN2Cc2ccc(Cl)nc2)([N+](=O)[O-])[C@@H]1c1cccs1	100%	100%	46.8 µM	44.1 µM				
O=[N+]([O-])C1=C2N(Cc3ccc(Cl)nc3)CCN2[C@H](c2ccco2)[C@@](C2=NCCN2Cc2ccc(Cl)nc2)([N+](=O)[O-])[C@@H]1c1ccco1	100%	100%	4.43 µM	26.5 µM	1.62	1.07 µM	3.76 µM	10.32
O=[N+]([O-])/N=C1\NCCN1Cc1ccc(Cl)nc1 [IMIDACLOPRID]	100%	100%	35 µM	125 µM	1	1.73 µM	38.8 µM	1
